Results reported in PubChem BioAssay (NCI).
Where “and” joins values, the source holds several entries; their conditions need not be identical. Equal entries are not always repeated.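 Dose response: 5 concentrations. Exposure: 48 h. Format: 96-well plates. Endpoint: linear interpolation; highest concentration if not reached. TGI: total growth inhibition.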

Assays:
Experiment in all cases: NCI tumour cell line growth inhibition, 48 h
A498 renal = test system: A498 renal
A549 NSCLC = test system: A549 NSCLC
CAKI-1 renal = test system: CAKI-1 renal
COLO 205 colon = test system: COLO 205 colon
DLD-1 colon = test system: DLD-1 colon
DMS 114 small cell lung = test system: DMS 114 small cell lung
DMS 273 small cell lung = test system: DMS 273 small cell lung
EKVX NSCLC = test system: EKVX NSCLC
HCC-2998 colon = test system: HCC-2998 colon
HCT-116 colon = test system: HCT-116 colon
HCT-15 colon = test system: HCT-15 colon
HL-60(TB) leukemia = test system: HL-60(TB) leukemia
HOP-18 NSCLC = test system: HOP-18 NSCLC
HOP-62 NSCLC = test system: HOP-62 NSCLC
HOP-92 NSCLC = test system: HOP-92 NSCLC
HT29 colon = test system: HT29 colon
IGROV1 ovarian = test system: IGROV1 ovarian
K-562 leukemia = test system: K-562 leukemia
KM12 colon = test system: KM12 colon
KM20L2 colon = test system: KM20L2 colon
LOX IMVI melanoma = test system: LOX IMVI melanoma
M19-MEL melanoma = test system: M19-MEL melanoma
MALME-3M melanoma = test system: MALME-3M melanoma
MCF7 breast = test system: MCF7 breast
MOLT-4 leukemia = test system: MOLT-4 leukemia
NCI-H226 lung = test system: NCI-H226 lung
NCI-H23 lung = test system: NCI-H23 lung
NCI-H460 lung = test system: NCI-H460 lung
NCI-H522 lung = test system: NCI-H522 lung
NCI/ADR-RES ovarian = test system: NCI/ADR-RES ovarian
OVCAR-3 ovarian = test system: OVCAR-3 ovarian
OVCAR-4 ovarian = test system: OVCAR-4 ovarian
OVCAR-5 ovarian = test system: OVCAR-5 ovarian
OVCAR-8 ovarian = test system: OVCAR-8 ovarian
P388 leukemia = test system: P388 leukemia
P388/ADR leukemia = test system: P388/ADR leukemia
RPMI-8226 leukemia = test system: RPMI-8226 leukemia
RXF 393 renal = test system: RXF 393 renal
SF-268 CNS = test system: SF-268 CNS
SF-295 CNS = test system: SF-295 CNS
SF-539 CNS = test system: SF-539 CNS
SK-MEL-2 melanoma = test system: SK-MEL-2 melanoma
SK-MEL-28 melanoma = test system: SK-MEL-28 melanoma
SK-MEL-5 melanoma = test system: SK-MEL-5 melanoma
SK-OV-3 ovarian = test system: SK-OV-3 ovarian
SN12C renal = test system: SN12C renal
SN12K1 renal = test system: SN12K1 renal
SNB-19 CNS = test system: SNB-19 CNS
SNB-75 CNS = test system: SNB-75 CNS
SNB-78 CNS = test system: SNB-78 CNS
SW-620 colon = test system: SW-620 colon
U251 CNS = test system: U251 CNS
UACC-257 melanoma = test system: UACC-257 melanoma
UACC-62 melanoma = test system: UACC-62 melanoma
UO-31 renal = test system: UO-31 renal
XF 498 CNS = test system: XF 498 CNS
786-0 renal = test system: 786-0 renal
ACHN renal = test system: ACHN renal
CCRF-CEM leukemia = test system: CCRF-CEM leukemia
LXFL 529 NSCLC = test system: LXFL 529 NSCLC
M14 melanoma = test system: M14 melanoma
RXF-631 renal = test system: RXF-631 renal
SR leukemia = test system: SR leukemia
TK-10 renal = test system: TK-10 renal

C#CC[N+](CCO)(CCO)CCCCCCCCCCCCCCCCCC
TGI (A498 renal): 37.8 µM | TGI (A549 NSCLC): 36.5 µM | TGI (CAKI-1 renal): 15.9 µM | TGI (COLO 205 colon): 27.1 µM | TGI (DLD-1 colon): 24.5 µM | TGI (DMS 114 small cell lung): 33 µM | TGI (DMS 273 small cell lung): 22.6 µM | TGI (EKVX NSCLC): 51.1 µM | TGI (HCC-2998 colon): 23.7 µM | TGI (HCT-116 colon): 27.4 µM | TGI (HCT-15 colon): 50.8 µM | TGI (HL-60(TB) leukemia): 3.43 µM | TGI (HOP-18 NSCLC): 22.1 µM | TGI (HOP-62 NSCLC): 25.5 µM | TGI (HOP-92 NSCLC): 5.2 µM | TGI (HT29 colon): 20.1 µM | TGI (IGROV1 ovarian): 5.13 µM | TGI (K-562 leukemia): > 41.2 µM | TGI (KM12 colon): 8.97 µM | TGI (KM20L2 colon): 25.8 µM | TGI (LOX IMVI melanoma): > 48.3 µM | TGI (M19-MEL melanoma): 15 µM | TGI (MALME-3M melanoma): 32.3 µM | TGI (MCF7 breast): 36.5 µM | TGI (MOLT-4 leukemia): 9.7 µM | TGI (NCI-H226 lung): 29.2 µM | TGI (NCI-H23 lung): 30.1 µM | TGI (NCI-H460 lung): 27.9 µM | TGI (NCI-H522 lung): 21.7 µM | TGI (NCI/ADR-RES ovarian): 39.5 µM | TGI (OVCAR-3 ovarian): 35.9 µM | TGI (OVCAR-4 ovarian): 25 µM | TGI (OVCAR-5 ovarian): 32.5 µM | TGI (OVCAR-8 ovarian): 43.1 µM | TGI (P388 leukemia): 2.5 µM | TGI (P388/ADR leukemia): > 43.7 µM | TGI (RPMI-8226 leukemia): > 29 µM | TGI (RXF 393 renal): 6.64 µM | TGI (SF-268 CNS): 26.2 µM | TGI (SF-295 CNS): 24.1 µM | TGI (SF-539 CNS): 30.2 µM | TGI (SK-MEL-2 melanoma): 31.8 µM | TGI (SK-MEL-28 melanoma): 30.6 µM | TGI (SK-MEL-5 melanoma): 32.1 µM | TGI (SK-OV-3 ovarian): 36.1 µM | TGI (SN12C renal): 39.3 µM | TGI (SN12K1 renal): 30 µM | TGI (SNB-19 CNS): 20.7 µM | TGI (SNB-75 CNS): 15.9 µM | TGI (SNB-78 CNS): 28.4 µM | TGI (SW-620 colon): 34.9 µM | TGI (U251 CNS): 27.5 µM | TGI (UACC-257 melanoma): 31 µM | TGI (UACC-62 melanoma): 25.4 µM | TGI (UO-31 renal): 34.9 µM | TGI (XF 498 CNS): 17.3 µM

O=NN(CCCl)C(=O)NC1CCC(C(=O)O)CC1 (stereo not given)
TGI (786-0 renal): > 100 µM | TGI (A498 renal): > 100 µM | TGI (A549 NSCLC): > 100 µM | TGI (ACHN renal): > 100 µM | TGI (CAKI-1 renal): > 100 µM | TGI (CCRF-CEM leukemia): > 100 µM | TGI (COLO 205 colon): > 100 µM | TGI (DLD-1 colon): > 100 µM | TGI (DMS 114 small cell lung): > 100 µM and 49 µM | TGI (DMS 273 small cell lung): > 100 µM | TGI (EKVX NSCLC): > 100 µM | TGI (HCC-2998 colon): > 100 µM | TGI (HCT-116 colon): > 100 µM | TGI (HCT-15 colon): > 100 µM | TGI (HL-60(TB) leukemia): > 100 µM | TGI (HOP-18 NSCLC): > 100 µM | TGI (HOP-62 NSCLC): > 100 µM | TGI (HOP-92 NSCLC): > 100 µM | TGI (HT29 colon): > 100 µM | TGI (IGROV1 ovarian): > 100 µM | TGI (K-562 leukemia): > 100 µM | TGI (KM12 colon): > 100 µM | TGI (KM20L2 colon): > 100 µM | TGI (LOX IMVI melanoma): > 100 µM | TGI (LXFL 529 NSCLC): > 100 µM | TGI (M14 melanoma): > 100 µM | TGI (M19-MEL melanoma): > 100 µM | TGI (MALME-3M melanoma): > 100 µM | TGI (MCF7 breast): > 100 µM | TGI (MOLT-4 leukemia): > 80.9 µM | TGI (NCI-H226 lung): > 100 µM | TGI (NCI-H23 lung): > 100 µM | TGI (NCI-H460 lung): > 100 µM | TGI (NCI-H522 lung): 75.1 µM and > 100 µM | TGI (NCI/ADR-RES ovarian): > 100 µM | TGI (OVCAR-3 ovarian): > 100 µM | TGI (OVCAR-4 ovarian): > 100 µM | TGI (OVCAR-5 ovarian): > 100 µM | TGI (OVCAR-8 ovarian): > 100 µM | TGI (P388 leukemia): 16.2 µM and 19.2 µM | TGI (P388/ADR leukemia): 17.5 µM and 33.8 µM | TGI (RPMI-8226 leukemia): > 100 µM | TGI (RXF 393 renal): > 100 µM | TGI (RXF-631 renal): > 100 µM | TGI (SF-268 CNS): > 100 µM | TGI (SF-295 CNS): > 100 µM | TGI (SF-539 CNS): > 100 µM | TGI (SK-MEL-2 melanoma): > 100 µM | TGI (SK-MEL-28 melanoma): > 100 µM | TGI (SK-MEL-5 melanoma): > 100 µM | TGI (SK-OV-3 ovarian): > 100 µM | TGI (SN12C renal): > 100 µM | TGI (SN12K1 renal): > 100 µM | TGI (SNB-19 CNS): > 100 µM | TGI (SNB-75 CNS): > 100 µM | TGI (SNB-78 CNS): > 100 µM | TGI (SR leukemia): > 100 µM | TGI (SW-620 colon): > 100 µM | TGI (TK-10 renal): > 100 µM | TGI (U251 CNS): > 100 µM | TGI (UACC-257 melanoma): > 100 µM | TGI (UACC-62 melanoma): > 100 µM | TGI (UO-31 renal): > 100 µM | TGI (XF 498 CNS): > 100 µM
